What all share (type): binding
Test [1] deals with FecB R141S (Mycobacterium tuberculosis, UniProt O53291, R141S).
The target of test [2] is FecB R240S (Mycobacterium tuberculosis, UniProt O53291, R240S).
Test [3] has as its target FecB D332S (Mycobacterium tuberculosis, UniProt O53291, D332S).
In test [4] the target is FecB Q233S (Mycobacterium tuberculosis, UniProt O53291, Q233S).
Test [5] has as its target FecB E272S (Mycobacterium tuberculosis, UniProt O53291, E272S).
The target of test [6] is FecB L163R (Mycobacterium tuberculosis, UniProt O53291, L163R).
In test [7] the target is FecB Y270S (Mycobacterium tuberculosis, UniProt O53291, Y270S).
Test [8] addresses FecB Q336S (Mycobacterium tuberculosis, UniProt O53291, Q336S).

ferric-carboxymycobactin [Fe-cMB]: the dissociation constant (Kd) is 1130 nM in test [1]; 1100 nM in test [2]; 990 nM in test [3]; 1050 nM in test [4]; 1730 nM in test [5]; 1160 nM in test [6]. Also, the Kd is 940 nM in test [7] and 1400 nM in test [8].

The record behind these values is paper PMC10553834, “Differentiating the roles of Mycobacterium tuberculosis substrate binding proteins, FecB and FecB2, in iron uptake” (PLOS Pathogens, 2023).
